# Reference: US8242275B2, “Bicyclic pyrazole compounds as antibacterial agents” (Janssen Pharmaceutica NV, priority 2005, dated 2012)
# Key:
# CipR MRSA OC3946 = assay: Resistant strains assay (broth microdilution MIC); format: cell-based; conditions: Staphylococcus aureus; CipR MRSA OC3946; read-out: MIC, Column E
# Protocol: (§1) Compounds of the present invention were tested for activity against susceptible and resistant bacterial strains in vitro, and activity was compared to known anti-bacterial agents. Testing protocols followed NCCLS methodology for broth microdilution assays. MIC values in μg/mL are presented in Table 3 for the following strains: Column A: MSSA ATCC13709 (Smith); Column B: MSSA ATCC 29213; Column C: MRSA OC3726 (COL); Column D: MRSA OC2878.
# MIC values in μg/mL are presented in Table 4 for the following strains: Column E: CipR MRSA OC3946; Column F: CipR MRSA OC4159; Column G: CipR MRSA OC4222; Column H: CipR MRSA OC5273.
# MSSA ATCC13709 (Smith) = assay: Resistant strains assay (broth microdilution MIC); format: cell-based; conditions: Staphylococcus aureus
# Protocol: as §1
# MSSA ATCC 29213 = assay: Resistant strains assay (broth microdilution MIC); format: cell-based; conditions: Staphylococcus aureus, read-out: MIC, Column B
# Protocol: as §1
# E. coli topoisomerase IV = target: T1, E. coli topoisomerase IV (Escherichia coli, UniProt P0AFI2+P20083); assay: Topoisomerase IV inhibition assay (relaxation); format: biochemical; conditions: E. coli topoisomerase IV relaxation, visual inspection of gels; read-out: Topoisomerase IV IC50 (converted)
# T1 construct: purchased John Innes Enterprises Ltd. (John Innes Centre, UK)
# Protocol: Inhibition of the relaxation activity of E. coli topoisomerase IV was determined using enzyme, buffers and substrates received from John Innes Enterprises Ltd. (John Innes Centre, UK). The reactions were performed according to the manufacturer's directions, with the following modifications.
# DNA relaxation reactions were carried out in a total reaction volume of 20 μL, containing 300 ng of supercoiled pBR322, 40 mM HEPES-KOH (pH 7.6), 100 mM potassium glutamate, 10 mM Mg(OAc)2, 10 mM DTT, 4 μg/mL tRNA, 2 mM ATP, and 50 μg/mL BSA. Compounds, diluted in 10% DMSO, were added to the reaction mixture to reach a final concentration of 0.5% DMSO. Enzyme was diluted to 0.45 unit/μL in a solution of 40 mM HEPES-KOH (pH 7.6), 150 mM potassium glutamate, 1 mM DTT, 1 mM EDTA, and 40% glycerol. Diluted enzyme (0.9 unit) was added to each reaction.
# The reactions were incubated at 37° C. for 45 min. The reactions were then cooled to 0° C. followed by addition of 3 μL of 40% glycerol, 100 mM Tris-HCl (pH 7.5), 50 mM EDTA, 0.5% SDS and 0.1% bromophenol blue. Samples were separated on 1.0% agarose gels. Gels were stained with Ethidium bromide and photographed with a Stratagene Eagle Eye II.
# E. coli DNA gyrase = target: T2, E. coli DNA gyrase (Escherichia coli, UniProt P0AES4+P0AES6); assay: DNA gyrase inhibition assay (supercoiling); format: biochemical; conditions: E. coli DNA gyrase supercoiling, visual inspection of gels; read-out: DNA Gyrase IC50 (converted)
# T2 construct: purchased John Innes Enterprises Ltd. (John Innes Centre, UK)
# Method in brief: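 Relaxed pBR322 (250 ng) was supercoiled by 0.2 unit gyrase in Tris-HCl pH 7.5, KCl, MgCl2, DTT, spermidine, 1 mM ATP, glycerol, albumin, 0.5% DMSO final, 30 min at 37° C. Products were resolved on 1.0% agarose gels with ethidium bromide staining.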
# CipR MRSA OC4222 = assay: Resistant strains assay (broth microdilution MIC); format: cell-based; conditions: Staphylococcus aureus; CipR MRSA OC4222; read-out: MIC, Column G
# Text: (§2) Testing protocols followed NCCLS methodology for broth microdilution assays.
# MRSA OC2878 = assay: Resistant strains assay (broth microdilution MIC); format: cell-based; conditions: Staphylococcus aureus; MRSA OC2878; read-out: MIC, Column D
# Text: as §2
# CipR MRSA OC5273 = assay: Resistant strains assay (broth microdilution MIC); format: cell-based; conditions: Staphylococcus aureus, read-out: MIC, Column H
# Text: as §2
# CipR MRSA OC4159 = assay: Resistant strains assay (broth microdilution MIC); format: cell-based; conditions: Staphylococcus aureus, read-out: MIC, Column F
# Text: as §2
# MRSA OC3726 (COL) = assay: Resistant strains assay (broth microdilution MIC); format: cell-based; conditions: Staphylococcus aureus; MRSA OC3726 (COL); read-out: MIC, Column C
# Text: as §2
# [1] = tested on: E. coli KL-16 (GSC strain 4245); assay: In vitro antibacterial activity (MIC assay), broth microdilution; format: cell-based; conditions: Escherichia coli
# Method in brief: (§3)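 Broth microdilution per NCCLS M7-A5: 11-point 2-fold compound dilutions from DMSO stocks, inoculum about 5×10^5 CFU/mL, incubation 35° C for 16–24 h. MIC scored visually against no-compound growth controls, in μg/mL.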
# S. aureus ATCC13709 = assay: as above; format: cell-based; conditions: Staphylococcus aureus, ATCC13709; read-out: S. aureus ATCC13709 MIC
# Method in brief: as §3
# S. pneumoniae ATCC49619 = assay: as above; format: cell-based; conditions: Streptococcus pneumoniae, ATCC49619; read-out: S. pneumoniae ATCC49619 MIC
# Method in brief: as §3
# T2 sequence (P0AES4 whole entry, one chain of several): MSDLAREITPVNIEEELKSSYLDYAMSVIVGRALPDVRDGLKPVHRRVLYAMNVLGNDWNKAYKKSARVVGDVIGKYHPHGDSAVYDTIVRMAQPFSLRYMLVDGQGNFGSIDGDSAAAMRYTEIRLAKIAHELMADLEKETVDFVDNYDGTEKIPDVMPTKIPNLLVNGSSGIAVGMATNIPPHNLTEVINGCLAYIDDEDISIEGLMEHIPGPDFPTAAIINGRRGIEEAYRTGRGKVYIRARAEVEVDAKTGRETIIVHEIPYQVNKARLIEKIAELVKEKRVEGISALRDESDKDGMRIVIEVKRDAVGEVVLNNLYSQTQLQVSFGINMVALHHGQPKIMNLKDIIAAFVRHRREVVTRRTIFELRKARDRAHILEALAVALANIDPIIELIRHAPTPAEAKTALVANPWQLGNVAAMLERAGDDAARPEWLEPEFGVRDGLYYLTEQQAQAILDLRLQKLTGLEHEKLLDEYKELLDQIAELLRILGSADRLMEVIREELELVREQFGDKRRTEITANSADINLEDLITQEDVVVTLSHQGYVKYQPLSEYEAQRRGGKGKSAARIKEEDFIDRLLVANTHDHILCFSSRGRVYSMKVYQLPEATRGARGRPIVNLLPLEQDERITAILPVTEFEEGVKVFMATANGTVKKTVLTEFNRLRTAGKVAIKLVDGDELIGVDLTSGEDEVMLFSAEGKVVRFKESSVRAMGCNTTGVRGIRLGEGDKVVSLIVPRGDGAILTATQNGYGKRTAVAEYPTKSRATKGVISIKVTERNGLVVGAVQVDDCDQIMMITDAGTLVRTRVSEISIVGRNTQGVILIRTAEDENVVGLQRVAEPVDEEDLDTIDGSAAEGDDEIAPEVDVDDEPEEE
# T1 sequence (P0AFI2 whole entry): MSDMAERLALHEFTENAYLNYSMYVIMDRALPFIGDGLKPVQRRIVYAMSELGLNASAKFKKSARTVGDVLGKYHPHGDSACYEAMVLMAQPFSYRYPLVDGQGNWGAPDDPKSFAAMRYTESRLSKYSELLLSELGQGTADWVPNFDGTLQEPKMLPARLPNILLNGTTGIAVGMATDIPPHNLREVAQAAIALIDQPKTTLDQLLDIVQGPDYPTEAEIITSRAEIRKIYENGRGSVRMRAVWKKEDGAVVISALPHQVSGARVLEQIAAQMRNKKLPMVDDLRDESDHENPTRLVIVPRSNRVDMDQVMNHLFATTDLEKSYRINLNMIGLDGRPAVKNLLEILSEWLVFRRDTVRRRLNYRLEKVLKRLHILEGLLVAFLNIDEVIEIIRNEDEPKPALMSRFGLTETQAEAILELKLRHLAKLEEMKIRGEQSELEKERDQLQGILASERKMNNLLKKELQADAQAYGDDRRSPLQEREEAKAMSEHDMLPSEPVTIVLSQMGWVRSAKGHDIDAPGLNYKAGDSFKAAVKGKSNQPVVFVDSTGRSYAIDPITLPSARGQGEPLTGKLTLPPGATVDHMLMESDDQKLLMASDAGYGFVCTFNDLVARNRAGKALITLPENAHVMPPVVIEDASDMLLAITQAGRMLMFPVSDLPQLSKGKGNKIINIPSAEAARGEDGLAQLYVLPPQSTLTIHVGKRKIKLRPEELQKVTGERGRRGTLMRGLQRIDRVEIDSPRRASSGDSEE
# T1 sequence (P20083 whole entry): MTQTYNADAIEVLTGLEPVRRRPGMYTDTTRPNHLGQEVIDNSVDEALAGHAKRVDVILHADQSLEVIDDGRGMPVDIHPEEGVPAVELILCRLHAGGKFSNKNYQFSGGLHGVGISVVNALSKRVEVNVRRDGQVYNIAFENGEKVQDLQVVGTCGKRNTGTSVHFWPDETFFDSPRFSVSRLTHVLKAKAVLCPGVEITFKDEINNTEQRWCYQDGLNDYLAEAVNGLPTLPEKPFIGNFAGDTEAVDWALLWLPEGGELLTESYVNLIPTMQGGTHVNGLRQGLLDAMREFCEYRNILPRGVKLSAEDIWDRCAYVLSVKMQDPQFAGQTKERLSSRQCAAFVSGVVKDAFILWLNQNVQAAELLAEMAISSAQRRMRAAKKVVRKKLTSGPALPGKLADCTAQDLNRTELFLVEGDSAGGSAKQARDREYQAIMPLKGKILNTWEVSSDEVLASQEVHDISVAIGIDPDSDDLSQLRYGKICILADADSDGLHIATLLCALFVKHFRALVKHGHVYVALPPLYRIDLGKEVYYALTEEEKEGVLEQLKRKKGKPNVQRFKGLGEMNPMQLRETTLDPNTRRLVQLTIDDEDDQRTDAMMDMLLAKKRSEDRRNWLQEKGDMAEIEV
SMILES,MIC (CipR MRSA OC3946),MIC (MSSA ATCC13709 (Smith)),MIC (MSSA ATCC 29213),IC50 (E. coli topoisomerase IV),IC50 (E. coli DNA gyrase),MIC (CipR MRSA OC4222),MIC (MRSA OC2878),MIC (CipR MRSA OC5273),MIC (CipR MRSA OC4159),MIC (MRSA OC3726 (COL)),MIC [1],MIC (S. aureus ATCC13709),MIC (S. pneumoniae ATCC49619)
"COc1ccc2nccc(-n3cc4c(n3)CCC(NCc3ccc5c(c3)OCCO5)C4)c2c1 (centres unmarked) [Example 50, (2,3-Dihydro-benzo[1,4]dioxin-6-ylmethyl)-[2-(6-methoxy-quinolin-4-yl)-4,5,6,7-tetrahydro-2H-indazol-5-yl]-amine]",0.5 mg/L,0.5 mg/L,16 mg/L,0.136 µM,4.52 µM,16 mg/L,0.5 mg/L,1 mg/L,16 mg/L,1 mg/L,128 mg/L,0.5 mg/L,1 mg/L
"COc1ccc2nccc(-n3cc4c(n3)CCC(NC(=O)c3c(F)cc5c(c3F)NC(=O)CS5)C4)c2n1 (centres unmarked) [Example 109, 5,7-Difluoro-3-oxo-3,4-dihydro-2H-benzo[1,4]thiazine-6-carboxylic acid [2-(6-methoxy-[1,5]naphthyridin-4-yl)-4,5,6,7-tetrahydro-2H-indazol-5-yl]-amide]",,,,,1.91 µM,0.03 mg/L,,,,,> 128 mg/L,0.125 mg/L,4 mg/L
"COc1ccc2nccc(-n3cc4c(n3)CCC(NC/C=C/c3ccccc3)C4)c2c1 (centres unmarked) [Example 55, [2-(6-Methoxy-quinolin-4-yl)-4,5,6,7-tetrahydro-2H-indazol-5-yl]-(3-phenyl-allyl)-amine]",0.5 mg/L,0.5 mg/L,2 mg/L,,,0.25 mg/L,0.5 mg/L,1 mg/L,0.5 mg/L,1 mg/L,64 mg/L,0.5 mg/L,1 mg/L
"COc1ccc2nccc(-n3cc4c(n3)CCC(NC(=O)c3c(F)cc5c(c3F)NC(=O)CS5)C4)c2c1 (centres unmarked) [Example 108, 5,7-Difluoro-3-oxo-3,4-dihydro-2H-benzo[1,4]thiazine-6-carboxylic acid [2-(6-methoxy-quinolin-4-yl)-4,5,6,7-tetrahydro-2H-indazol-5-yl]-amide]",,,,,1.92 µM,0.06 mg/L,,,,,8 mg/L,0.125 mg/L,1 mg/L
"CCn1cc(C(=O)O)c(=O)c2cc(F)c(N3CCNCC3)cc21 [Norfloxacin, reference compound]",128 mg/L,1 mg/L,2 mg/L,,,> 128 mg/L,1 mg/L,> 128 mg/L,> 128 mg/L,2 mg/L,,,
"C[C@@H]1CN(c2c(F)c(N)c3c(=O)c(C(=O)O)cn(C4CC4)c3c2F)C[C@H](C)N1 [Sparfloxacin, reference compound]",4 mg/L,0.062 mg/L,0.062 mg/L,,,8 mg/L,0.062 mg/L,16 mg/L,16 mg/L,0.125 mg/L,,,
"O=C(O)c1cn(C2CC2)c2cc(N3CCNCC3)c(F)cc2c1=O [Ciprofloxacin, reference compound]",16 mg/L,0.25 to 0.5 mg/L,0.25 to 0.5 mg/L,,,,,,,,,,
